Measurements taken from PMC12951568, “Identifying Structural Factors Governing the Photodynamic Activity of Phthalocyanines” (Journal of Medicinal Chemistry, 2026).
Read-outs that look alike come from different tables or passages of the source.

Assays:
[1] = Absorption and fluorescence emission spectra in DMF; format: physicochemical; conditions: in DMF
Method: (§1) An absorption spectrum of 2.475 mL of solvent (water, DMF, or PBS) was taken (i.e., absorption spectrum of baseline); then, 25 μL of stock solution was added to reach the final concentration of 1 μM in the cuvette, and the absorption and emission spectra were taken. Baseline of the solvent was subtracted from the obtained absorption spectrum to get the final absorption spectrum of the sample.

[2] = Fluorescence quantum yield, comparative method; format: physicochemical; conditions: in DMF; ZnPc as reference
In short: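 ΦF determined by the comparative method against ZnPc (ΦF 0.32 in THF), using integrated emission area, absorbance at the excitation wavelength and solvent refractive index. Q-band absorbance kept below 0.05; estimated error ± 15%.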

[3] = Quantum yield of singlet oxygen production, comparative method with DPBF scavenger; format: physicochemical; conditions: in DMF, ZnPc as reference
In short: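 Dye added from 100 μM DMF stock (or DMF/water, water); irradiated under stirring with xenon lamp through water filter and OG530 cut-off (>523 nm). DPBF decay followed at 415 nm; ΦΔ from ln(A0/At) slopes versus reference, normalised to absorbed light summed over 523–850 nm; triplicate means, ±10% error.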

[4] = Log P, partition between n-octanol and PBS; format: physicochemical; conditions: partition coefficient between 1-octanol and PBS
In short: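 Sample from 100 μM stock added to equal volumes of n-octanol and PBS, vortexed 5 min at rt, centrifuged. Each layer diluted into DMF and emission spectra recorded; log P taken as log of octanol/PBS integrated fluorescence ratio, mean of triplicates.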

[5] = Aggregation / monomerization in aqueous media (spectra in water and PBS); format: physicochemical; conditions: 1 μM
Method: as §1

[6] = test system: MCF-7 (human breast adenocarcinoma); assay: Photodynamic activity (phototoxicity, neutral red uptake) on MCF-7; format: cell-based; conditions: 12 h incubation, Xe-lamp 15 min, λ > 570 nm, 11.2 J/cm^2; mean ± SD; t.w. = this work
[7] = test system: HeLa (human cervical carcinoma); conditions: 12 h incubation, Xe-lamp 15 min, λ > 570 nm, 11.2 J/cm^2; mean ± SD; determined previously under the same conditions at the same workplace and published; ref number not given; read-out: EC50 (nM) HeLa; cited from earlier work
[8] = test system: SK-MEL-28 (human skin melanoma); parameters: method as in number not printed in Table 2; conditions: 12 h incubation, Xe-lamp 15 min, λ > 570 nm, 11.2 J/cm^2; mean ± SD; determined previously under the same conditions at the same workplace and published; ref number not given; cited from earlier work
[9] = Fluorescence lifetime in DMF; format: physicochemical
Source text: 1 Photophysical Data of Investigated Derivatives in DMF ^a | column: τF1/ns; τF2/ns

[10] = test system: MCF-7 (human breast adenocarcinoma); parameters: method as in number not printed in Table 2; conditions: 12 h incubation, Xe-lamp 15 min, λ > 570 nm, 11.2 J/cm^2; mean ± SD; determined previously under the same conditions at the same workplace and published; ref number not given; cited from earlier work

SMILES	ε, extinction coefficient [1]	λA, absorption maximum in the Q-band [1] [nm]	λF, fluorescence emission maximum [1] [nm]	ΦF, fluorescence quantum yield [2]	ΦΔ, quantum yield of singlet oxygen production [3]	Log P [4]	aggregation / monomeric state [5]	EC50 [6] [nM]	EC50 [7] [nM]	EC50 [8] [nM]	τF1, fluorescence lifetime (relative amplitude in brackets) [9] [ns]	EC50 [10] [nM]
CC[N+](CC)(CC)CCSc1ccc(SCC[N+](CC)(CC)CC)c2c1C1=NC2=Nc2c3c(SCC[N+](CC)(CC)CC)ccc(SCC[N+](CC)(CC)CC)c3c3[n]2[Zn][n]2c(c4c(SCC[N+](CC)(CC)CC)ccc(SCC[N+](CC)(CC)CC)c4c2=NC2=NC(=N3)c3c(SCC[N+](CC)(CC)CC)ccc(SCC[N+](CC)(CC)CC)c32)=N1.[I-].[I-].[I-].[I-].[I-].[I-].[I-].[I-] [C9Zn]	134 170 M^–1cm^–1	757	783	0.06	0.64	–1.65	did not sufficiently suppress aggregation	210 ± 10	310 ± 121	220 ± 21	–	–
Cc1cc(Cn2cc[n+](C)c2)c(Oc2c3c(c(C)c(C)[n+]2C)C2=Nc4c5c(Oc6c(Cn7cc[n+](C)c7)cc(C)cc6Cn6cc[n+](C)c6)[n+](C)c(C)c(C)c5c5[n]4[Zn][n]4c(c6c(C)c(C)[n+](C)c(Oc7c(Cn8cc[n+](C)c8)cc(C)cc7Cn7cc[n+](C)c7)c6c4=NC4=NC(=N5)c5c4c(C)c(C)[n+](C)c5Oc4c(Cn5cc[n+](C)c5)cc(C)cc4Cn4cc[n+](C)c4)=NC3=N2)c(Cn2cc[n+](C)c2)c1.[I-].[I-].[I-].[I-].[I-].[I-].[I-].[I-].[I-].[I-].[I-].[I-] [C11Zn]	160 750 M^–1cm^–1	716	726	0.21	0.53	–2.25	full monomerization	–	3.8 ± 0.2	3.8 ± 0.6	1.41	2.8 ± 0.1
